Experimental data: ChEMBL document CHEMBL3991601, “The target landscape of clinical kinase drugs” (Science, 2017)
pKd: −log10 of the molar value. Calls of active or inactive are those of the source. For most assays here, no stated cut-off is given here; in the data, actives have a measured Kd and inactives only a lower limit.

Columns and labels:
Activin receptor type-1 = molecular target: T1, Activin receptor type-1 (Homo sapiens, UniProt Q04771)
T1 sequence (Q04771 whole entry): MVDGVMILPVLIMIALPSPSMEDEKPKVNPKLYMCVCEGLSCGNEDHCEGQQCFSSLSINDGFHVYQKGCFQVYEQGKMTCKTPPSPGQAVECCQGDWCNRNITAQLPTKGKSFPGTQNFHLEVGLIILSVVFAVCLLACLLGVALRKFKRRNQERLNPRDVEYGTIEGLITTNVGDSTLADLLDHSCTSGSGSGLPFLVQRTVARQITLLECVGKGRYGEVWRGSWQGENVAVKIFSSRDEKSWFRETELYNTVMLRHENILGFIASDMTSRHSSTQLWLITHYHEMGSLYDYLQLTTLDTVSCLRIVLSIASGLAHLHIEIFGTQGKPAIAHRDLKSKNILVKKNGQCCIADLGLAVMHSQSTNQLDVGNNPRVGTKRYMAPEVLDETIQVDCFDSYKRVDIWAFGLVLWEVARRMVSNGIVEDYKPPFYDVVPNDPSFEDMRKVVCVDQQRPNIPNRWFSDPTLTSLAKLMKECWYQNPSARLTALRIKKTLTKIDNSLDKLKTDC

[1] = molecular target: T2, Calcium/calmodulin-dependent protein kinase type IV (Homo sapiens, UniProt Q16566)
T2 sequence (Q16566 whole entry): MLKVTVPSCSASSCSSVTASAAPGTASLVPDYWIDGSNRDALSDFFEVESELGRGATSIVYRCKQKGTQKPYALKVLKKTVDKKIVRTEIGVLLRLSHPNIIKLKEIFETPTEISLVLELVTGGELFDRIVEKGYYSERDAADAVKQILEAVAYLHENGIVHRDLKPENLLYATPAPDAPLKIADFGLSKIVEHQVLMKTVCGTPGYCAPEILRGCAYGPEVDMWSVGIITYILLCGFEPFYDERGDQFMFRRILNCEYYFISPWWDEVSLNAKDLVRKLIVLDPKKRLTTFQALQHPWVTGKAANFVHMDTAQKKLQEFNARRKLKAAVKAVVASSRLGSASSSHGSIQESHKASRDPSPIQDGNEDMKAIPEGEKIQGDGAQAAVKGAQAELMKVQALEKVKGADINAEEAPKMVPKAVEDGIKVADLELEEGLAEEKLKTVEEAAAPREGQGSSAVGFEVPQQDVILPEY

[2] = molecular target: T3, Serine/threonine-protein kinase Chk1 (Homo sapiens, UniProt O14757)
T3 sequence (O14757 whole entry): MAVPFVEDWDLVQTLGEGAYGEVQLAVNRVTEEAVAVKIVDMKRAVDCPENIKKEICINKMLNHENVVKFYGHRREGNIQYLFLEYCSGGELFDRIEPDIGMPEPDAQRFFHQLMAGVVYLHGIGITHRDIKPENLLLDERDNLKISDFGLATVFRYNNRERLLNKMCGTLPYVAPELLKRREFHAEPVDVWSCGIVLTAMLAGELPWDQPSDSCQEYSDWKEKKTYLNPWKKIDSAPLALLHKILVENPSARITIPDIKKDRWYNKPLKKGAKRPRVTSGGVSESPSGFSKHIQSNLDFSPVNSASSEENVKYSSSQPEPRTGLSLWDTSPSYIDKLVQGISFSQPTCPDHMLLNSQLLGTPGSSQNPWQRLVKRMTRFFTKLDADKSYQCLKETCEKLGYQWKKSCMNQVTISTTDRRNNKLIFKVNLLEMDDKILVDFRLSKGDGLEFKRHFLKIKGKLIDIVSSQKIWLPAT

[3] = molecular target: Dual specificity protein kinase CLK1 (Homo sapiens, UniProt P49759)
Dual specificity protein kinase CLK1, sequence (P49759 whole entry): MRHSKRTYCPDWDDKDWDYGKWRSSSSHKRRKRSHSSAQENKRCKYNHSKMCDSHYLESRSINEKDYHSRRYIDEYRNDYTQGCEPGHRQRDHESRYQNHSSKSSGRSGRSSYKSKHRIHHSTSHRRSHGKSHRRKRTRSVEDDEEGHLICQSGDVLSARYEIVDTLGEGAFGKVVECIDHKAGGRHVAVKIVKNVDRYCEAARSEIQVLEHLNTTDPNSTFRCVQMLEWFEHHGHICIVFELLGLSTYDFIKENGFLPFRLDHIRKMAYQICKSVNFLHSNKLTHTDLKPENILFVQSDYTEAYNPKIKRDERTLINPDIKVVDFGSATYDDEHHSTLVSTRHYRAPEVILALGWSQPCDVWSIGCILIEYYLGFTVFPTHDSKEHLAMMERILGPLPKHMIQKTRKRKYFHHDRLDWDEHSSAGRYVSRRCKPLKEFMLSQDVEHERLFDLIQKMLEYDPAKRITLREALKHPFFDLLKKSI

[4] = molecular target: DnaJ homolog subfamily A member 1 (Homo sapiens, UniProt P31689)
DnaJ homolog subfamily A member 1, sequence (P31689 whole entry): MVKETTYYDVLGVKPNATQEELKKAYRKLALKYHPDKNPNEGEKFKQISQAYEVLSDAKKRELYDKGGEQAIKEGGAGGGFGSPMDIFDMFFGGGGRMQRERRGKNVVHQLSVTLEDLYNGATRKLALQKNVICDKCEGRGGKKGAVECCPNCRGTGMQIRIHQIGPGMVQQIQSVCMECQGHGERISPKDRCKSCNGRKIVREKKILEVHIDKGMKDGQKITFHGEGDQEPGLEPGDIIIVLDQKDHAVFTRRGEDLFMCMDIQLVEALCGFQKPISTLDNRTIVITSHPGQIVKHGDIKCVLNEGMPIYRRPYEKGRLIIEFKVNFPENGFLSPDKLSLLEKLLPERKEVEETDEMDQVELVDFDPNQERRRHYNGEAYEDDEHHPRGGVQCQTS

[5] = molecular target: T4, Serine/threonine-protein kinase 3 (Homo sapiens, UniProt Q13188)
T4 sequence (Q13188 whole entry): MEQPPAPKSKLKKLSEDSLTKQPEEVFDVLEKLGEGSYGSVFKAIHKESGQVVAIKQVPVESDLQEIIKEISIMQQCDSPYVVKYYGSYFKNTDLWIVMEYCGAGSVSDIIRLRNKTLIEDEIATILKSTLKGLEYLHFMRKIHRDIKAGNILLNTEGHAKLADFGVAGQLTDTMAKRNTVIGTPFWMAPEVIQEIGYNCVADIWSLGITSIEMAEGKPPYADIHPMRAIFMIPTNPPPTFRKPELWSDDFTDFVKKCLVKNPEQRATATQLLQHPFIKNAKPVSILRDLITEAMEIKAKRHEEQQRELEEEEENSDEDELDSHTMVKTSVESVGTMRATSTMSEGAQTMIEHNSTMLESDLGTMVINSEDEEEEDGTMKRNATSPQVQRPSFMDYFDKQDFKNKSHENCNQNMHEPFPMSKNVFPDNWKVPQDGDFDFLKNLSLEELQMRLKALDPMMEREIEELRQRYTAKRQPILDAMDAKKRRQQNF

[6] = molecular target: T5, Non-receptor tyrosine-protein kinase TNK1 (Homo sapiens, UniProt Q13470)
T5 sequence (Q13470 whole entry): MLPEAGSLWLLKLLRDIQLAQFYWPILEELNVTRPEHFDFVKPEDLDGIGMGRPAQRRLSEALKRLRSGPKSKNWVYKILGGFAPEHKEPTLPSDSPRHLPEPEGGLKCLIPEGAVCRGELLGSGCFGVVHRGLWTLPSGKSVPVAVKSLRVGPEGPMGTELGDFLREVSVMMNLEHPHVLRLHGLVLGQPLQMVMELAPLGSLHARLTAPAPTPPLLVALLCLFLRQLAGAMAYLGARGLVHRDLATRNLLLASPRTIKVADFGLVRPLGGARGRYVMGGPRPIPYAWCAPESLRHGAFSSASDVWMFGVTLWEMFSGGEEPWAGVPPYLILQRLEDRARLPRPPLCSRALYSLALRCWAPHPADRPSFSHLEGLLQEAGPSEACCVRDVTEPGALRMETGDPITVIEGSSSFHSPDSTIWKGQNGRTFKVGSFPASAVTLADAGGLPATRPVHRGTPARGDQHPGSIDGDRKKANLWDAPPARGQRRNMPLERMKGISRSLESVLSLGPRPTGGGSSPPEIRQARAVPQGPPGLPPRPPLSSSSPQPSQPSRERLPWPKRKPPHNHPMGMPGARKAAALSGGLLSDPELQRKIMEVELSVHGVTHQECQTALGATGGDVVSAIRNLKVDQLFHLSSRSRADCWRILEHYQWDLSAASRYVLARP

Structure (SMILES) | Kd (Activin receptor type-1) | Kd [1] | Kd [2] | Kd [3] | Kd [4] | Kd [5] | Kd [6] | pKd [3]
C=CC(=O)Nc1cc(Nc2nccc(-c3cn(C)c4ccccc34)n2)c(OC)cc1N(C)CCN(C)C [OSIMERTINIB] | > 30 µM (inactive) | > 30 µM (inactive) | > 30 µM (inactive) | > 30 µM (inactive) | > 30 µM (inactive) | > 30 µM (inactive) | > 30 µM (inactive) | 
FC(F)(F)c1ccc(CNc2ccc(Cc3c[nH]c4ncc(Cl)cc34)cn2)cn1 [PEXIDARTINIB] | > 30 µM (inactive) | > 30 µM (inactive) | > 30 µM (inactive) | > 30 µM (inactive) | > 30 µM (inactive) | > 30 µM (inactive) | > 30 µM (inactive) | 
CC(C)CC(=O)Nc1[nH]nc2c1CN(C(=O)C1CCN(C)CC1)C2(C)C [PHA-793887] | > 30 µM (inactive) | > 30 µM (inactive) | > 30 µM (inactive) | 2.18 µM (active) | > 30 µM (inactive) | > 30 µM (inactive) | > 30 µM (inactive) | 
O=C(NC[C@H](O)CO)c1ccncc1Nc1ccc(I)cc1F [PIMASERTIB] | > 30 µM (inactive) | > 30 µM (inactive) | > 30 µM (inactive) | > 30 µM (inactive) | > 30 µM (inactive) | > 30 µM (inactive) | > 30 µM (inactive) | 
COc1cc(F)c(F)c(Nc2ccc(I)cc2F)c1NS(=O)(=O)C1(C[C@H](O)CO)CC1 [REFAMETINIB] | > 30 µM (inactive) | > 30 µM (inactive) | 0.439 µM (active) | > 30 µM (inactive) | > 30 µM (inactive) | > 30 µM (inactive) | > 30 µM (inactive) | 
COCCN1CCN(Cc2ccc(-c3n[nH]c4c3C(=O)c3c(NC(=O)NN5CCOCC5)cccc3-4)cc2)CC1 [RGB-286638] | > 30 µM (inactive) | > 30 µM (inactive) | > 30 µM (inactive) |  | > 30 µM (inactive) | > 30 µM (inactive) | > 30 µM (inactive) | 8.70
C=CC(=O)Nc1cccc(Nc2nc(Nc3ccc(N4CCN(C(C)=O)CC4)cc3OC)ncc2C(F)(F)F)c1 [ROCILETINIB] | > 30 µM (inactive) | > 30 µM (inactive) | > 30 µM (inactive) | 0.651 µM (active) | > 30 µM (inactive) | > 30 µM (inactive) | 0.289 µM (active) | 
C=CCN(/C=C1/C(=O)O[C@H](COC)[C@@]2(C)C1=C(O)C(=O)C1=C2[C@H](OC(C)=O)C[C@]2(C)C(=O)CC[C@@H]12)CC=C [SONOLISIB] | > 30 µM (inactive) | > 30 µM (inactive) | > 30 µM (inactive) | > 30 µM (inactive) | > 30 µM (inactive) | > 30 µM (inactive) | > 30 µM (inactive) | 
CN1CCN(c2nc(C3=C(c4c[nH]c5ccccc45)C(=O)NC3=O)c3ccccc3n2)CC1 [SOTRASTAURIN] | > 30 µM (inactive) | > 30 µM (inactive) | > 30 µM (inactive) | > 30 µM (inactive) | > 30 µM (inactive) | > 30 µM (inactive) | > 30 µM (inactive) | 
O[C@H]1CC[C@H](Nc2ncc3nc(Nc4c(F)cc(F)cc4F)n([C@H]4CCOC4)c3n2)CC1 [TANZISERTIB] | > 30 µM (inactive) | > 30 µM (inactive) | > 30 µM (inactive) | > 30 µM (inactive) | > 30 µM (inactive) | > 30 µM (inactive) | > 30 µM (inactive) | 
CNC(=O)c1cc(COc2nnc(Nc3ccc(Cl)cc3)c3ccoc23)ccn1 [TELATINIB] | > 30 µM (inactive) | > 30 µM (inactive) | > 30 µM (inactive) | > 30 µM (inactive) | > 30 µM (inactive) | > 30 µM (inactive) | > 30 µM (inactive) | 
Cc1cc(-c2cc(OC(=O)c3ccccc3)ccc2Cl)cc2nnc(Nc3ccc(OCCN4CCCC4)cc3)nc12 [TG100-801] | > 30 µM (inactive) | > 30 µM (inactive) | > 30 µM (inactive) | > 30 µM (inactive) | > 30 µM (inactive) | > 30 µM (inactive) | > 30 µM (inactive) | 
C[C@@H]1COC(Nc2ccc3ncnc(Nc4ccc(OCc5nccs5)c(Cl)c4)c3c2)=N1 [VARLITINIB] | > 30 µM (inactive) | > 30 µM (inactive) | > 30 µM (inactive) | > 30 µM (inactive) | > 30 µM (inactive) | > 30 µM (inactive) | > 30 µM (inactive) | 
CNC(=O)c1cccc(-c2ccc3c(N4CCOC[C@@H]4C)nc(N4CCOC[C@@H]4C)nc3n2)c1 [VISTUSERTIB] | > 30 µM (inactive) | > 30 µM (inactive) | > 30 µM (inactive) | > 30 µM (inactive) | > 30 µM (inactive) | > 30 µM (inactive) | > 30 µM (inactive) | 
NC(=O)c1ccc(N(C(N)=O)c2c(F)cccc2F)nc1-c1ccc(F)cc1F [VX-702] | > 30 µM (inactive) | > 30 µM (inactive) | > 30 µM (inactive) | > 30 µM (inactive) | > 30 µM (inactive) | > 30 µM (inactive) | > 30 µM (inactive) | 

Further lines, with some results ahead:

Kd (Activin receptor type-1) | Kd [1] | Kd [2] | Kd [3] | Kd [4] | Kd [5] | Kd [6] | Structure (SMILES) | pKd [3]
> 30 µM (inactive) | > 30 µM (inactive) | > 30 µM (inactive) | > 30 µM (inactive) | > 30 µM (inactive) | > 30 µM (inactive) | > 30 µM (inactive) | CC(C)(O)CC(=O)NCCn1ccc2ncnc(Nc3ccc(Oc4cccc(C(F)(F)F)c4)c(Cl)c3)c21 [TAK-285] | 
> 30 µM (inactive) | > 30 µM (inactive) | > 30 µM (inactive) | > 30 µM (inactive) | > 30 µM (inactive) | > 30 µM (inactive) | > 30 µM (inactive) | Cc1cc(C(=O)Nc2cc(Oc3ccc4nc(NC(=O)C5CC5)cn4n3)ccc2C)n(C)n1 [TAK-593] | 
> 30 µM (inactive) | > 30 µM (inactive) | > 30 µM (inactive) | > 30 µM (inactive) | > 30 µM (inactive) | > 30 µM (inactive) | > 30 µM (inactive) | Cn1c(=O)c(F)c(Nc2ccc(I)cc2F)c2c(=O)n(C[C@@H](O)CO)cnc21 [TAK-733] | 
